# Measurements reported in publication PMC11695203, “A new peptide inhibitor of C1QBP exhibits potent anti‐tumour activity against triple negative breast cancer by impairing mitochondrial function and suppressing homologous recombination repair” (Clinical and Translational Medicine, 2025).
# T1: human C1QBP 74–282 (human, UniProt Q07021 74-282)
# T1 construct: also called p32; source: vector a gift from Dr Adrian R. Krainer
# T1 sequence (looked up): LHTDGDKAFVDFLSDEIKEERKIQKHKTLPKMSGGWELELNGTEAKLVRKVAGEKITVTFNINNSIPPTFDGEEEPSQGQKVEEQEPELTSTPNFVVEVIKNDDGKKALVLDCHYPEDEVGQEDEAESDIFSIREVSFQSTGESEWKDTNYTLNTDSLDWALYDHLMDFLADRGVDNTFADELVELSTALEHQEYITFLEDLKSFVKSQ
# Tests used:
# C1QBP = settings: cited from earlier work
# Excerpt: C1QBP, targeted by PDBAG1, predominantly localises in the mitochondrial matrix and plays a crucial role in mitochondrial protein translation and function.[3] It represents a promising therapeutic target for various human cancers, including breast cancer. We observed significant overexpression of C1QBP in the TNBC subtype, which correlated with worse DFS. Based on our findings, we believe PDBAG1 primarily affects tumour cells, with minimal toxicity to normal cells. Although PDBAG1's precursor peptide is derived from normal adipose tissue, its impact on adipose metabolism is likely less pronounc ...
# [1] = In vivo toxicity: body weight and HE staining of spleen, liver, kidney; settings: PDBAG1 10 mg/kg, PJ34-HCL 1 mg/kg i.p. every 3 days
# Procedure: (§1) Four‐week‐old BALB/c nude mice (Charles River Laboratories, Beijing, China) were subcutaneously inoculated in the breast fat pad with 1 × 10^7 MDA‐MB‐231 cells. The treatment group received 10 mg/kg PDBAG1, while the control group was administered an equal volume of PBS. For preliminary experiment of immunocompetent mice, 4‐week‐old BALB/c mice (Charles River Laboratories) were subcutaneously inoculated in the mammary fat pad with 1 × 10^6 4T1 cells. The treatment group received 10 mg/kg PDBAG1, while the control group was administered an equal volume of PBS. For evaluating the PJ34‐HCL combination, 28 randomly assigned BALB/c nude mice were divided into respective treatment groups as follows: Group 1 served as a negative control and received PBS; Group 2 received intraperitoneal injections of 10 mg/kg PDBAG1 every 3 days; Group 3 received 1 mg/kg PJ34‐HCL every 3 days; Group 4 was treated with a combination of 10 mg/kg PDBAG1 and 1 mg/kg PJ34‐HCL every 3 days. Both PDBAG1 and PJ34‐HCL were dissolved in specific concentrations of normal saline and administered intraperitoneally. All mice were sacrificed 4 weeks after inoculation, and their subcutaneous xenografts were resected and weighed. Subsequently, formalin‐fixed subcutaneous tumours were processed into paraffin‐embedded sections for routine IHC analysis. […]
# [2] = test system: MDA-MB-231 and MDA-MB-468 cells; settings: FITC-labelled PDBAG1 50 µM, 6 h, fluorescence microscopy
# Procedure: The cells were seeded in a 24‐well plate, and FITC‐labelled PDBAG1 was added to the cell culture medium at a final concentration of 50 µM. After three washes with PBS, performed 6 h post peptide addition, the samples were fixed with 4% paraformaldehyde for 15 min and stained with DAPI (5 µg/mL) for 5 min. Following PBS washing, fluorescence microscopy was employed for observation.
# [3] = test system: HEK-293T and MCF-10A cell lines; settings: 30 μM, 24 hours
# MDA-MB-231 xenograft = experiment: MDA-MB-231 tumour model in nude mice; assay type: in vivo, BALB/c nude mice; settings: PJ34-HCL combination study, harvested tumours
# Procedure: as §1
# MDA-MB-231 cells = experiment: CCK-8 assay, MDA-MB-231; assay type: cell-based, human; settings: CCK-8, MDA-MB-231 and MDA-MB-468, co-treated 72 h / 24 h
# Procedure: The cells were cultured at the corresponding cell densities in 96‐well plates. Following treatment with specific concentrations of reagents for designated durations, the CCK8 reagent was added to each well at a final ratio of 10% (v/v). After incubation for 2 h, the absorbance at 450 nm was measured using a microplate reader (H4, Synergy). For the Edu assay, logarithmic growth phase cells were inoculated into 96‐well plates at a density of 3 × 10^4 cells/mL. Subsequently, they were treated with specific concentrations of reagents for designated durations and then replaced with EdU medium containing a final concentration of 10 µmol/L. The cells were incubated for an additional period of 2 h. Following PBS washing and fixation with 4% paraformaldehyde for 30 min, Apollo staining reaction solution was added according to instructions and allowed to react for another 30 min. This was followed by addition of DAPI staining reaction solution for a duration of 10 min before washing again with PBS. Three randomly selected fields of vision from each group in each well were calculated and photographed under a fluorescence microscope. […] Three random fields of view were selected to quantify the number of cells that traversed through the microporous membrane.
# human C1QBP 74–282 = target: T1, human C1QBP 74–282; experiment: ITC; PDBAG1 (500 µM) in the syringe into C1QBP 74–282 (17.0 µM) in the cell, 25°C, MicroCal VP ITC, no Zn2+, one set-of-sites model; buffer by the methods 20 mM HEPES pH 7.5, 600 mM NaCl, 1 mM EDTA, 1 mM EGTA, 5% glycerol, by the legend 20 mM potassium phosphate, 100 mM NaCl, pH 7.4; settings: both partners purified
molecule,measurement,setting,value
CGNKRTRGC [LyP‐1],Binding to C1QBP,C1QBP,can bind to cell surface‐associated C1QBP
Ac-GRKKRRQRRRPPQQASKKVCIVGSGNWGSAIA-NH2 [PDBAG1],Body weight during or after drug administration,[1],no significant differences
same,"HE staining of spleen, liver and kidney",[1],no notable deviations from normal structure and morphology
same,Cell penetration,[2],potent cell‐penetrating properties
same,Morphological alterations in non-tumour cells,[3],no obvious in morphological alterations
CN(C)CC(=O)Nc1ccc2[nH]c(=O)c3ccccc3c2c1.Cl [PJ34‐HCL],"C1QBP protein in tumour tissue (IHC, western blot)",MDA-MB-231 xenograft,no substantial changes
same,"Cell viability with PARP inhibitor, alone or combined with PDBAG1",MDA-MB-231 cells,exhibited significant effects
CGKRK [tumour-specific vascular homing peptide],Binding to C1QBP,C1QBP,can bind to cell surface‐associated C1QBP
"GRKKRRQRRRPPQQASKKVCIVGSGNWGSAIA (stretch of glycerol-3-phosphate dehydrogenase 1 (GPD1), found by peptidomics in benign breast adipose tissue of patients; also called peptide PDBAG1; source: synthetic peptide (Fmoc solid-phase synthesis, Shanghai Science Peptide Biological Technology Co)) [PDBAG1 (peptide derived from breast adipose tissue GPD1)]",Kd,human C1QBP 74–282,334 nM
